Reference: ChEMBL document CHEMBL4138146, “A Schmidt rearrangement-mediated synthesis of novel tetrahydro-benzo[1,4]diazepin-5-ones as potential anticancer and antiprotozoal agents” (Eur J Med Chem, 2017)

How the values were obtained:
Format in all cases: functional
Hs-578T = assay: Growth inhibition of human Hs 578T cells incubated for 48 hrs by sulforhodamine B assay
BT-549 = assay: Growth inhibition of human BT549 cells incubated for 48 hrs by sulforhodamine B assay; settings: BT-549, 48 h
HL-60(TB) = assay: Growth inhibition of human HL-60(TB) cells incubated for 48 hrs by sulforhodamine B assay; settings: HL-60, 48 h
COLO 205 = assay: Growth inhibition of human COLO205 cells incubated for 48 hrs by sulforhodamine B assay; settings: COLO 205, 48 h
NCI-H23 = assay: Growth inhibition of human NCI-H23 cells incubated for 48 hrs by sulforhodamine B assay; settings: NCI-H23, 48 h
SF-268 = assay: Growth inhibition of human SF268 cells incubated for 48 hrs by sulforhodamine B assay; settings: SF-268, 48 h
HT-29 = assay: Growth inhibition of human HT-29 cells incubated for 48 hrs by sulforhodamine B assay; settings: HT-29, 48 h
K562 = assay: Growth inhibition of human K562 cells incubated for 48 hrs by sulforhodamine B assay; settings: K562, 48 h
786-0 = assay: Growth inhibition of human 786-0 cells incubated for 48 hrs by sulforhodamine B assay; settings: 786-0, 48 h
OVCAR-8 = assay: Growth inhibition of human OVCAR8 cells incubated for 48 hrs by sulforhodamine B assay; settings: OVCAR-8, 48 h
NCI-H226 = assay: Growth inhibition of human NCI-H226 cells incubated for 48 hrs by sulforhodamine B assay; settings: NCI-H226, 48 h
OVCAR-4 = assay: Growth inhibition of human OVCAR4 cells incubated for 48 hrs by sulforhodamine B assay; settings: OVCAR-4, 48 h
SK-MEL-2 = assay: Growth inhibition of human SK-MEL-2 cells incubated for 48 hrs by sulforhodamine B assay; settings: SK-MEL-2, 48 h
CAKI-1 = assay: Growth inhibition of human Caki1 cells incubated for 48 hrs by sulforhodamine B assay; settings: CAKI-1, 48 h
PC-3 = assay: Growth inhibition of human PC3 cells incubated for 48 hrs by sulforhodamine B assay; settings: PC-3, 48 h
MDA-MB-231 = assay: Growth inhibition of human MDA-MB-231 cells incubated for 48 hrs by sulforhodamine B assay; settings: MDA-MB-231, 48 h
LOX IMVI = assay: Growth inhibition of human LOXIMVI cells incubated for 48 hrs by sulforhodamine B assay
HOP-62 = assay: Growth inhibition of human HOP62 cells incubated for 48 hrs by sulforhodamine B assay; settings: HOP-62, 48 h
Malme-3M = assay: Growth inhibition of human MALME-3M cells incubated for 48 hrs by sulforhodamine B assay
OVCAR-5 = assay: Growth inhibition of human OVCAR5 cells incubated for 48 hrs by sulforhodamine B assay; settings: OVCAR-5, 48 h
M14 = assay: Growth inhibition of human M14 cells incubated for 48 hrs by sulforhodamine B assay; settings: M14, 48 h
T47D = assay: Growth inhibition of human T47D cells incubated for 48 hrs by sulforhodamine B assay
MDA-MB-468 = assay: Growth inhibition of human MDA-MB-468 cells incubated for 48 hrs by sulforhodamine B assay; settings: MDA-MB-468, 48 h
RXF 393 = assay: Growth inhibition of human RXF393 cells incubated for 48 hrs by sulforhodamine B assay; settings: RXF 393, 48 h
SNB-75 = assay: Growth inhibition of human SNB75 cells incubated for 48 hrs by sulforhodamine B assay; settings: SNB-75, 48 h
A498 = assay: Growth inhibition of human A498 cells incubated for 48 hrs by sulforhodamine B assay; settings: A498, 48 h
EKVX = assay: Growth inhibition of human EKVX cells incubated for 48 hrs by sulforhodamine B assay
TK-10 = assay: Growth inhibition of human TK10 cells incubated for 48 hrs by sulforhodamine B assay; settings: TK-10, 48 h
HCT-15 = assay: Growth inhibition of human HCT15 cells incubated for 48 hrs by sulforhodamine B assay; settings: HCT-15, 48 h
UO-31 = assay: Growth inhibition of human UO31 cells incubated for 48 hrs by sulforhodamine B assay; settings: UO-31, 48 h
DU-145 = assay: Growth inhibition of human DU145 cells incubated for 48 hrs by sulforhodamine B assay; settings: DU-145, 48 h
HCT-116 = assay: Growth inhibition of human HCT116 cells incubated for 48 hrs by sulforhodamine B assay; settings: HCT-116, 48 h
OVCAR-3 = assay: Growth inhibition of human OVCAR3 cells incubated for 48 hrs by sulforhodamine B assay; settings: OVCAR-3, 48 h
A549 = assay: Growth inhibition of human A549/ATCC cells incubated for 48 hrs by sulforhodamine B assay; settings: A549, 48 h
SN12C = assay: Growth inhibition of human SN12C cells incubated for 48 hrs by sulforhodamine B assay
SK-MEL-5 = assay: Growth inhibition of human SK-MEL-5 cells incubated for 48 hrs by sulforhodamine B assay; settings: SK-MEL-5, 48 h
IGROV-1 = assay: Growth inhibition of human IGROV1 cells incubated for 48 hrs by sulforhodamine B assay; settings: IGROV-1, 48 h
UACC-257 = assay: Growth inhibition of human UACC257 cells incubated for 48 hrs by sulforhodamine B assay; settings: UACC-257, 48 h
[1] = read-out: LC50 (the source's name)

Question: What does the source list for `CCCCOc1nc2ccccc2cc1C1CNC(=O)c2ccccc2N1` (centres undefined)?
Answer: GI50 (Hs-578T): 3.21 µM; TGI (Hs-578T): 33.8 µM; CC50 (Hs-578T; [1]): > 100 µM; GI50 (BT-549): 5.22 µM; TGI (BT-549): 38.8 µM; CC50 (BT-549; [1]): > 100 µM; GI50 (HL-60(TB)): 47 nM; LC50 (HL-60(TB)): 65.4 µM; TGI (HL-60(TB)): 384 nM; GI50 (COLO 205): 2190 nM; TGI (COLO 205): 4.95 µM; CC50 (COLO 205; [1]): 23 µM; GI50 (NCI-H23): 5.16 µM; TGI (NCI-H23): 36.8 µM; CC50 (NCI-H23; [1]): > 100 µM; GI50 (SF-268): 4.14 µM; TGI (SF-268): > 100 µM; CC50 (SF-268; [1]): > 100 µM; GI50 (HT-29): 3.21 µM; TGI (HT-29): 11.1 µM; CC50 (HT-29; [1]): 67.7 µM; GI50 (K562): 840 nM; LC50 (K562): > 100 µM; TGI (K562): 16.4 µM; GI50 (786-0): 2840 nM; TGI (786-0): 10.4 µM; CC50 (786-0; [1]): 4.65 µM; GI50 (OVCAR-8): 3.45 µM; TGI (OVCAR-8): 16.1 µM; CC50 (OVCAR-8; [1]): > 100 µM; GI50 (NCI-H226): 3.13 µM; TGI (NCI-H226): 14.9 µM; CC50 (NCI-H226; [1]): > 100 µM; GI50 (OVCAR-4): 5.38 µM; TGI (OVCAR-4): 31.8 µM; CC50 (OVCAR-4; [1]): > 100 µM; GI50 (SK-MEL-2): 4.79 µM; TGI (SK-MEL-2): 48.5 µM; CC50 (SK-MEL-2; [1]): > 100 µM; GI50 (CAKI-1): 2830 nM; TGI (CAKI-1): 34.4 µM; CC50 (CAKI-1; [1]): > 100 µM; GI50 (PC-3): 3.06 µM; TGI (PC-3): 13.4 µM; CC50 (PC-3; [1]): 66.9 µM; GI50 (MDA-MB-231): 3.83 µM; TGI (MDA-MB-231): 20.9 µM; CC50 (MDA-MB-231; [1]): 90.3 µM; GI50 (LOX IMVI): 2900 nM; TGI (LOX IMVI): 14.4 µM; CC50 (LOX IMVI; [1]): 47.3 µM; GI50 (HOP-62): 2990 nM; LC50 (HOP-62): 76.7 µM; TGI (HOP-62): 17.4 µM; GI50 (Malme-3M): 3.58 µM; TGI (Malme-3M): 27 µM; CC50 (Malme-3M; [1]): 92 µM; GI50 (OVCAR-5): 6.42 µM; TGI (OVCAR-5): 41 µM; CC50 (OVCAR-5; [1]): > 100 µM; GI50 (M14): 1540 nM; TGI (M14): 11.8 µM; CC50 (M14; [1]): 92.2 µM; GI50 (T47D): 5.32 µM; TGI (T47D): > 100 µM; CC50 (T47D; [1]): > 100 µM; GI50 (MDA-MB-468): 1610 nM; TGI (MDA-MB-468): 7.34 µM; CC50 (MDA-MB-468; [1]): > 100 µM; GI50 (RXF 393): 2500 nM; TGI (RXF 393): 12.1 µM; CC50 (RXF 393; [1]): 75.4 µM; GI50 (SNB-75): 1810 nM; TGI (SNB-75): 13.7 µM; CC50 (SNB-75; [1]): 48.3 µM; GI50 (A498): 390 nM; TGI (A498): 4.7 µM; CC50 (A498; [1]): > 100 µM; GI50 (EKVX): 4.76 µM; TGI (EKVX): 82.8 µM; CC50 (EKVX; [1]): > 100 µM; GI50 (TK-10): 4.93 µM; TGI (TK-10): 21.6 µM; CC50 (TK-10; [1]): 73.8 µM; GI50 (HCT-15): 1920 nM; TGI (HCT-15): 10.8 µM; CC50 (HCT-15; [1]): 48.6 µM; GI50 (UO-31): 2410 nM; TGI (UO-31): 20.9 µM; CC50 (UO-31; [1]): 67.2 µM; GI50 (DU-145): 3.16 µM; TGI (DU-145): 12.9 µM; CC50 (DU-145; [1]): > 100 µM; GI50 (HCT-116): 1840 nM; TGI (HCT-116): 6.26 µM; CC50 (HCT-116; [1]): 44.7 µM; GI50 (OVCAR-3): 1310 nM; TGI (OVCAR-3): 3.53 µM; CC50 (OVCAR-3; [1]): 9.4 µM; GI50 (A549): 3.64 µM; LC50 (A549): 53 µM; TGI (A549): 14.5 µM; GI50 (SN12C): 3.34 µM; TGI (SN12C): 18.2 µM; CC50 (SN12C; [1]): 90.6 µM; GI50 (SK-MEL-5): 2340 nM; TGI (SK-MEL-5): 20 µM; CC50 (SK-MEL-5; [1]): > 100 µM; GI50 (IGROV-1): 4.49 µM; TGI (IGROV-1): 23.9 µM; CC50 (IGROV-1; [1]): 98.5 µM; GI50 (UACC-257): 8.16 µM; TGI (UACC-257): > 100 µM; CC50 (UACC-257; [1]): > 100 µM
